Experimental data taken from article PMC12485897, “Characterization of the thermophilic xylanase Fsa02490Xyn from the hyperthermophile Fervidibacter sacchari belonging to glycoside hydrolase family 10” (FEBS Open Bio, 2025).

System: T1, Fsa02490Xyn
T1 construct: TAT signal peptide removed (mature 430 residues, 48 kDa); N-terminal 6xHis tag, GB1 solubility tag and TEV site kept (~53 kDa expected); codon-optimized, pET21b, E. coli T7 Express; monomer
Test: para-nitrophenol release, absorbance […] nm; Lineweaver-Burk plot
Type: biochemical, Fervidibacter sacchari
Settings: pH 7.5, 90 °C, 11 min, 0.697 μM enzyme

SMILES: O=[N+]([O-])c1ccc(O[C@@H]2OC[C@@H](O[C@@H]3OC[C@@H](O)[C@H](O)[C@H]3O)[C@H](O)[C@H]2O)cc1 [pNPX2]
- Km: 2380 µM
